According to patent publication US10758534B2 (Vertex Pharmaceuticals Incorporated, priority 2014, dated 2020):

Each molecule was assayed against T1, F508del (Homo sapiens, UniProt P13569, DEL508-508) (assay: Protocol 2: FRET membrane potential optical assay (VIPR), identification of correction compounds). Conditions: Table 3; compounds of Table 1 as modulators of CFTR activity; protocol not stated.
T1 construct: expressed in transfected cells
Type: cell-based
Procedure, shortened: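 NIH3T3 mouse fibroblasts stably expressing F508del-CFTR incubated with compound 16 h at 37 °C in serum-free medium, then loaded with CC2-DMPE/DiSBAC2(3) FRET dyes. Channel activated with 10 μM forskolin plus 20 μM genistein in Cl⁻-free (gluconate) bath; depolarisation from Cl⁻ efflux read on VIPR II.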

T1 sequence (P13569 with tags, fused parts or gaps DEL508-508): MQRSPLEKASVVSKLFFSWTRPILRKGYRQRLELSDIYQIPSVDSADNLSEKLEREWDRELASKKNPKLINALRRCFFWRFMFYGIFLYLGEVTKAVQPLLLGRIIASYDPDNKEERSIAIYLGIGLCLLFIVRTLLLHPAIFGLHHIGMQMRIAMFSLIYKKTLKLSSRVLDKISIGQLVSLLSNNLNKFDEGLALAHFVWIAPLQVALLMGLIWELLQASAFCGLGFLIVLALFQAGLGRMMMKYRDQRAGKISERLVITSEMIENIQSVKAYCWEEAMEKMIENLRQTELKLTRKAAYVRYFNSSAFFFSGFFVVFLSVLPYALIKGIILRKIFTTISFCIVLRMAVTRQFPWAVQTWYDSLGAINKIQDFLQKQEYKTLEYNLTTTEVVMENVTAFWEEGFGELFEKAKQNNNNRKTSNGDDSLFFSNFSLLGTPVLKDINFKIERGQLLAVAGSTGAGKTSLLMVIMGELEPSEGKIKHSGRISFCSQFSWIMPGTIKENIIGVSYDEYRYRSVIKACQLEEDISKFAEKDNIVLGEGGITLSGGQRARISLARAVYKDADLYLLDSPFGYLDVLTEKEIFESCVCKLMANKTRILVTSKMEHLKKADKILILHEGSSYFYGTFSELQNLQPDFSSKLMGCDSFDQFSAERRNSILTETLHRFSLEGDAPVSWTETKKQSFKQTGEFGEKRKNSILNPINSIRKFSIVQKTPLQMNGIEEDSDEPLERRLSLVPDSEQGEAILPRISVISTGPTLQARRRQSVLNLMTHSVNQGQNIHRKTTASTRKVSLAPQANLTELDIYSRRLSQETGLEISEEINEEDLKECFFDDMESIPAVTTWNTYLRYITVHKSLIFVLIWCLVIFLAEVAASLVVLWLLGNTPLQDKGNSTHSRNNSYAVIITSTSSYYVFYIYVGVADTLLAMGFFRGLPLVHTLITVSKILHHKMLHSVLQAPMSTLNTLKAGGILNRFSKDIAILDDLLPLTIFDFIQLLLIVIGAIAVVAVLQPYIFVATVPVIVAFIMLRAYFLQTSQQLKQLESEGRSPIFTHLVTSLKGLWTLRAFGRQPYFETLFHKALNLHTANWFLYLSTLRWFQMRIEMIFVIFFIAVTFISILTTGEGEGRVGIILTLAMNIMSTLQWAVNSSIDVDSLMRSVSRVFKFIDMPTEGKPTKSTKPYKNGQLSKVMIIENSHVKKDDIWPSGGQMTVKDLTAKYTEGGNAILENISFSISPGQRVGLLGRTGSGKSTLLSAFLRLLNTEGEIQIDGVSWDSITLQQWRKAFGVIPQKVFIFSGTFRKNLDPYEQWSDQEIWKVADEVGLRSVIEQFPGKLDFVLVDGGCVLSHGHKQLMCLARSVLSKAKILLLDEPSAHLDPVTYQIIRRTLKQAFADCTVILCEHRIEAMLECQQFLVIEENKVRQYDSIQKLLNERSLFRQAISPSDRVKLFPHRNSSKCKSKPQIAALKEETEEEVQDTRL

| EC30 | SMILES |
| --- | --- |
| ++ (“++” means between 3 uM and 10 uM) | Cc1cccc(C)c1Oc1nc(C(F)(F)F)ccc1C(=O)NS(=O)(=O)c1cccc(N)n1 [Compound 246, N-[(6-amino-2-pyridyl)sulfonyl]-2-(2,6-dimethylphenoxy)-6-(trifluoromethyl)pyridine-3-carboxamide] |
| +++ (“+++” means <3 uM) | Cc1cc(C)c(Cn2c(C(=O)NS(=O)(=O)c3ccccn3)cc3ccccc32)c(C)c1 [Compound 247, N-(2-pyridylsulfonyl)-1-[(2,4,6-trimethylphenyl)methyl]indole-2-carboxamide] |
| +++ (“+++” means <3 uM) | Cc1cc(C)c(Cn2c(C(=O)NS(=O)(=O)c3ccccc3)cc3cc(C)ccc32)c(C)c1 [Compound 248, N-(benzenesulfonyl)-5-methyl-1-[(2,4,6-trimethylphenyl)methyl]indole-2-carboxamide] |
| +++ (“+++” means <3 uM) | CNc1cccc(S(=O)(=O)NC(=O)c2cc(C(C)(C)C)nn2Cc2c(C)cc(C)cc2C)c1 [Compound 249, 5-tert-butyl-N-[3-(methylamino)phenyl]sulfonyl-2-[(2,4,6-trimethylphenyl)methyl]pyrazole-3-carboxamide] |
| +++ (“+++” means <3 uM) | CCOc1ccccc1-c1ccc(C(=O)NS(=O)(=O)c2cccc(N)n2)c(Oc2c(C)cc(C)cc2C)n1 [Compound 250, N-[(6-amino-2-pyridyl)sulfonyl]-6-(2-ethoxyphenyl)-2-(2,4,6-trimethylphenoxy)pyridine-3-carboxamide] |
| +++ (“+++” means <3 uM) | Cc1ccc(Oc2nc(C(C)(C)C)ccc2C(=O)NS(=O)(=O)c2cccc(N)c2)c(C)c1 [Compound 251, N-(3-aminophenyl)sulfonyl-6-tert-butyl-2-(2,4-dimethylphenoxy)pyridine-3-carboxamide] |
| +++ (“+++” means <3 uM) | CC(C)(C)c1ccc(-c2nc(C(C)(C)C)ccc2C(=O)NS(=O)(=O)c2cccc(N)c2)cc1 [Compound 252, N-(3-aminophenyl)sulfonyl-6-tert-butyl-2-(4-tert-butylphenyl)pyridine-3-carboxamide] |
| +++ (“+++” means <3 uM) | COc1cccc(S(=O)(=O)NC(=O)c2cc3ccccc3n2Cc2c(C)cc(C)cc2C)n1 [Compound 253, N-[(6-methoxy-2-pyridyl)sulfonyl]-1-[(2,4,6-trimethylphenyl)methyl]indole-2-carboxamide] |
| ++ (“++” means between 3 uM and 10 uM) | Cc1cc(C)c(CN2Cc3ccccc3C2C(=O)NS(=O)(=O)c2cccc(O)c2)c(C)c1 (stereo not drawn) [Compound 254, N-(3-hydroxyphenyl)sulfonyl-2-[(2,4,6-trimethylphenyl)methyl]isoindoline-1-carboxamide] |
| +++ (“+++” means <3 uM) | Cc1cc(C)c(Cn2cc(C(C)(C)C)nc2C(=O)NS(=O)(=O)c2cccc(N)c2)c(C)c1 [Compound 255, N-(3-aminophenyl)sulfonyl-4-tert-butyl-1-[(2,4,6-trimethylphenyl)methyl]imidazole-2-carboxamide] |
| +++ (“+++” means <3 uM) | Cc1cc(C)c(Oc2nn(C(C)(C)C)cc2C(=O)NS(=O)(=O)c2cccc(N)n2)c(C)c1 [Compound 256, N-[(6-amino-2-pyridyl)sulfonyl]-1-tert-butyl-3-(2,4,6-trimethylphenoxy)pyrazole-4-carboxamide] |
| +++ (“+++” means <3 uM) | Cc1cccc(C)c1Cn1nc(C(C)(C)C)cc1C(=O)NS(=O)(=O)c1ccccc1 [Compound 257, N-(benzenesulfonyl)-5-tert-butyl-2-[(2,6-dimethylphenyl)methyl]pyrazole-3-carboxamide] |
| ++ (“++” means between 3 uM and 10 uM) | COc1cccnc1S(=O)(=O)NC(=O)c1cc2ccccc2n1Cc1c(C)cc(C)cc1C [Compound 258, N-[(3-methoxy-2-pyridyl)sulfonyl]-1-[(2,4,6-trimethylphenyl)methyl]indole-2-carboxamide] |
| +++ (“+++” means <3 uM) | Cc1cc(C)c(Cn2c(C(=O)NS(=O)(=O)c3cccc(N)c3)cc3cc(C)ccc32)c(C)c1 [Compound 259, N-(3-aminophenyl)sulfonyl-5-methyl-1-[(2,4,6-trimethylphenyl)methyl]indole-2-carboxamide] |
| ++ (“++” means between 3 uM and 10 uM) | Cc1cc(C)c(Oc2nc3ccccc3cc2C(=O)NS(=O)(=O)c2cccc(N)c2)c(C)c1 [Compound 260, N-(3-aminophenyl)sulfonyl-2-(2,4,6-trimethylphenoxy)quinoline-3-carboxamide] |
| +++ (“+++” means <3 uM) | Cc1cc(C)c(Cn2nc(C(C)(C)C)nc2C(=O)NS(=O)(=O)c2cccc(N)c2)c(C)c1 [Compound 261, N-(3-aminophenyl)sulfonyl-5-tert-butyl-2-[(2,4,6-trimethylphenyl)methyl]-1,2,4-triazole-3-carboxamide] |
| +++ (“+++” means <3 uM) | CNc1cccc(S(=O)(=O)NC(=O)c2ccc(C(C)(C)C)nc2Oc2c(C)cc(C)cc2C)n1 [Compound 262, 6-tert-butyl-N-[[6-(methylamino)-2-pyridyl]sulfonyl]-2-(2,4,6-trimethylphenoxy)pyridine-3-carboxamide] |

| EC30 | SMILES |
| --- | --- |
| +++ (“+++” means <3 uM) | Cc1cccc(C)c1Cn1nc(-c2ccc3c(ccn3C)c2)cc1C(=O)NS(=O)(=O)c1ccccc1 [Compound 263, N-(benzenesulfonyl)-2-[(2,6-dimethylphenyl)methyl]-5-(1-methylindol-5-yl)pyrazole-3-carboxamide] |
| +++ (“+++” means <3 uM) | Cc1cc(C)c(Cn2c(C(=O)NS(=O)(=O)c3ccccc3)cc3ccccc32)c(C)c1 [Compound 264, N-(benzenesulfonyl)-1-[(2,4,6-trimethylphenyl)methyl]indole-2-carboxamide] |
| +++ (“+++” means <3 uM) | Cc1cc(C)c(Oc2nc(C(C)(C)C)ccc2C(=O)NS(=O)(=O)c2nc(N)cs2)c(C)c1 [Compound 265, N-(4-aminothiazol-2-yl)sulfonyl-6-tert-butyl-2-(2,4,6-trimethylphenoxy)pyridine-3-carboxamide] |
| +++ (“+++” means <3 uM) | Cc1cc(C)c(Cn2nc(C(C)(C)C)cc2C(=O)NS(=O)(=O)c2ccccc2C#N)c(C)c1 [Compound 266, 5-tert-butyl-N-(2-cyanophenyl)sulfonyl-2-[(2,4,6-trimethylphenyl)methyl]pyrazole-3-carboxamide] |
| +++ (“+++” means <3 uM) | COc1ncccc1S(=O)(=O)NC(=O)c1cc2cc(C)ccc2n1Cc1c(C)cc(C)cc1C [Compound 267, N-[(2-methoxy-3-pyridyl)sulfonyl]-5-methyl-1-[(2,4,6-trimethylphenyl)methyl]indole-2-carboxamide] |
| +++ (“+++” means <3 uM) | Cc1cc(C)c(Oc2nc(CCc3ccccc3)ccc2C(=O)NS(=O)(=O)c2cccc(N)n2)c(C)c1 [Compound 268, N-[(6-amino-2-pyridyl)sulfonyl]-6-phenethyl-2-(2,4,6-trimethylphenoxy)pyridine-3-carboxamide] |
| +++ (“+++” means <3 uM) | Cc1cc(C)c(Cn2nc(C(C)(C)C)cc2C(=O)NS(=O)(=O)c2ccc(O)cc2)c(C)c1 [Compound 269, 5-tert-butyl-N-(4-hydroxyphenyl)sulfonyl-2-[(2,4,6-trimethylphenyl)methyl]pyrazole-3-carboxamide] |
| +++ (“+++” means <3 uM) | Cc1cc(C)c(Cn2nc(C(C)(C)C)cc2C(=O)NS(=O)(=O)c2cccc(N(C)C)c2)c(C)c1 [Compound 270, 5-tert-butyl-N-[3-(dimethylamino)phenyl]sulfonyl-2-[(2,4,6-trimethylphenyl)methyl]pyrazole-3-carboxamide] |
| +++ (“+++” means <3 uM) | CC(c1ccccc1)c1nc(C(C)(C)C)ccc1C(=O)NS(=O)(=O)c1cccc(N)c1 (stereo not drawn) [Compound 271, N-(3-aminophenyl)sulfonyl-6-tert-butyl-2-(1-phenylethyl)pyridine-3-carboxamide] |
| ++ (“++” means between 3 uM and 10 uM) | CC(C)(C)c1ccc(C(=O)NS(=O)(=O)c2cccc(N)c2)c(Oc2ccccc2)n1 [Compound 272, N-(3-aminophenyl)sulfonyl-6-tert-butyl-2-phenoxy-pyridine-3-carboxamide] |
| +++ (“+++” means <3 uM) | Cc1cc(C)c(Oc2nc(NC(C)(C)C)ccc2C(=O)NS(=O)(=O)c2cccc(N)n2)c(C)c1 [Compound 273, N-[(6-Amino-2-pyridyl)sulfonyl]-6-(tert-butylamino)-2-(2,4,6-trimethylphenoxy)pyridine-3-carboxamide] |
| +++ (“+++” means <3 uM) | Cc1ccc(-c2nc(C(C)(C)C)ccc2C(=O)NS(=O)(=O)c2cccc(N)c2)cc1C [Compound 274, N-(3-aminophenyl)sulfonyl-6-tert-butyl-2-(3,4-dimethylphenyl)pyridine-3-carboxamide] |
| +++ (“+++” means <3 uM) | Cc1cc(C)c(Oc2nc(C(C)(C)C)ccc2C(=O)NS(=O)(=O)c2cccc3[nH]ccc23)c(C)c1 [Compound 275, 6-tert-butyl-N-(1H-indol-4-ylsulfonyl)-2-(2,4,6-trimethylphenoxy)pyridine-3-carboxamide] |
| +++ (“+++” means <3 uM) | Cc1c(Cn2nc(C(C)(C)C)cc2C(=O)NS(=O)(=O)c2cccc3ccn(C)c23)cccc1C(F)(F)F [Compound 276, 5-tert-butyl-N-(1-methylindol-7-yl)sulfonyl-2-[[2-methyl-3-(trifluoromethyl)phenyl]methyl]pyrazole-3-carboxamide] |
| +++ (“+++” means <3 uM) | Cc1cccc(C)c1Cn1nc(-c2ccccc2OC(C)C)cc1C(=O)NS(=O)(=O)c1ccccc1 [Compound 277, N-(benzenesulfonyl)-2-[(2,6-dimethylphenyl)methyl]-5-(2-isopropoxyphenyl)pyrazole-3-carboxamide] |
| ++ (“++” means between 3 uM and 10 uM) | Cc1cc(C)c(Cn2nc(OC(C)c3ccccc3)cc2C(=O)NS(=O)(=O)c2cccc(N)c2)c(C)c1 (stereo not drawn) [Compound 278, N-(3-aminophenyl)sulfonyl-5-(1-phenylethoxy)-2-[(2,4,6-trimethylphenyl)methyl]pyrazole-3-carboxamide] |
